Test system: DU-145 cells
Format: cell-based, Human

C=C1[C@@H](C)[C@H]2[C@H](Cc3ccccc3)NC(=O)[C@]23[C@H](OC(C)=O)/C=C/[C@@](C)(O)C(=O)[C@@H](C)C/C=C/[C@H]3[C@@H]1O [Cytochalasin-D]
Reduction in cell migration compared to cells treated with media alone: did not migrate
Relative Wound Density at 24 Hours, Mean: 3.3 ± 0.2
Relative Wound Density at 24 Hours, Percent Relative to Media: 4%

From patent US20120207743A1 (priority 2011, published 2012)
